Measurements: patent publication US10758534B2 (Vertex Pharmaceuticals Incorporated, priority 2014, dated 2020)

Molecular target: T1, F508del (Homo sapiens, UniProt P13569, DEL508-508)
T1 construct: expressed in transfected cells
Experiment: Protocol 2: FRET membrane potential optical assay (VIPR), identification of correction compounds
Assay type: cell-based
Conditions: Table 3; compounds of Table 1 as modulators of CFTR activity; protocol not stated
Summary of the method: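 Mouse NIH3T3 cells, stable F508del; cpd 16 hrs, 37° C., serum-free; pos ctrl 27° C. 16 hrs. Rinse in Krebs Ringers, dye load, then add 10 μM forskolin + 20 μM genistein with Cl^−-free (gluconate) medium; depolarization by FRET voltage dyes.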

T1 sequence (P13569 with tags, fused parts or gaps DEL508-508): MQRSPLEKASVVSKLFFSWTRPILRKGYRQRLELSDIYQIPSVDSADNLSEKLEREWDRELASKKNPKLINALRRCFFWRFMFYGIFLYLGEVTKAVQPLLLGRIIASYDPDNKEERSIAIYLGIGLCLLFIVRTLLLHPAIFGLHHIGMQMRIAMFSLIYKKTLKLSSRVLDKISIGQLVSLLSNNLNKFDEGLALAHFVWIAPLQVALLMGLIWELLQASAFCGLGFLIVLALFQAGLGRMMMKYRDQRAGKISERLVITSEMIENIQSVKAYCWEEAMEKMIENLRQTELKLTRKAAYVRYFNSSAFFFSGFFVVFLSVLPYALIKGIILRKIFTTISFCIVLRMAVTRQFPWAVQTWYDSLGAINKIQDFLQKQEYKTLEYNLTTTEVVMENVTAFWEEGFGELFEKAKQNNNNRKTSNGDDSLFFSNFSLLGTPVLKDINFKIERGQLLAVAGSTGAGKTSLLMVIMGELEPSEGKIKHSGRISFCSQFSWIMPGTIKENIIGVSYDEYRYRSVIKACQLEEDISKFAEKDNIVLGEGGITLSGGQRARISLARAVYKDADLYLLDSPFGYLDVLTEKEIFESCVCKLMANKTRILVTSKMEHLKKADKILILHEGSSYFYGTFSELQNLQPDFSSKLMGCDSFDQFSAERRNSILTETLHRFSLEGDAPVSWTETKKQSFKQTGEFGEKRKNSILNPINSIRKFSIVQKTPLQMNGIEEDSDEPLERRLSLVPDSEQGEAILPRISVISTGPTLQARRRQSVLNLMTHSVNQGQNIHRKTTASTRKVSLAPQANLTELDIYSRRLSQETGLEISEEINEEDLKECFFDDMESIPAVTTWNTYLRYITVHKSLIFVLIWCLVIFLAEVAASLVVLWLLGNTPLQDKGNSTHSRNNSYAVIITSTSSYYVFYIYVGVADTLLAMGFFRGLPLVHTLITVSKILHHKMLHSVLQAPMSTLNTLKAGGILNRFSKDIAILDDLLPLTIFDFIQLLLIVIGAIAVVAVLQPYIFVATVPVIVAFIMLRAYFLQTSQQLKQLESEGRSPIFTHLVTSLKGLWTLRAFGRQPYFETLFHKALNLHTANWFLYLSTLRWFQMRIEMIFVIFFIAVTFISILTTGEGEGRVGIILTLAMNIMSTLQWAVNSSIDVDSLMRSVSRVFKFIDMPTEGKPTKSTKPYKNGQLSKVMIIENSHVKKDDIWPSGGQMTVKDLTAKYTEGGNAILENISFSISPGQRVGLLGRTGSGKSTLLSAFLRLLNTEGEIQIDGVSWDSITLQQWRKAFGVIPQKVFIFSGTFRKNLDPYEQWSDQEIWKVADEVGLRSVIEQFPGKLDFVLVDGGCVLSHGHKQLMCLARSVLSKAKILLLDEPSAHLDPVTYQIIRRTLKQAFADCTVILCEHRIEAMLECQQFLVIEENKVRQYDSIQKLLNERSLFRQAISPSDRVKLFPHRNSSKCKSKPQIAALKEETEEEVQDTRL

EC30 | Compound
+++ (“+++” means <3 uM) | C[C@@H]1CC[C@H](C)N1c1nc(-c2cc(F)cc(OCC(C)(C)C)c2)ccc1C(=O)NS(=O)(=O)c1ccc[nH]c1=O [Compound 572, 6-[3-(2,2-dimethylpropoxy)-5-fluoro-phenyl]-2-[(2S,5R)-2,5-dimethylpyrrolidin-1-yl]-N-[(2-oxo-1H-pyridin-3-yl)sulfonyl]pyridine-3-carboxamide]
+++ (“+++” means <3 uM) | Cc1cc(C)c(Oc2nc(C3=CCC(C)(C)CC3)ccc2C(=O)NS(=O)(=O)c2ccc[nH]c2=O)c(C)c1 [Compound 573, 6-(4,4-dimethylcyclohexen-1-yl)-N-[(2-oxo-1H-pyridin-3-yl)sulfonyl]-2-(2,4,6-trimethylphenoxy)pyridine-3-carboxamide]
++ (“++” means between 3 uM and 10 uM) | COCC1CCCCN1c1nc(-c2ccc(OC(C)C)nc2)ccc1C(=O)NS(=O)(=O)c1cccc(N)n1 (centres unmarked) [Compound 574, N-[(6-amino-2-pyridyl)sulfonyl]-6-(6-isopropoxy-3-pyridyl)-2-[2-(methoxymethyl)-1-piperidyl]pyridine-3-carboxamide]
+++ (“+++” means <3 uM) | C[C@H](COCc1ccccc1)Oc1ccc(-c2ccc(C(=O)NS(=O)(=O)c3cccc(N)n3)c(N3[C@H](C)CC[C@@H]3C)n2)cn1 [Compound 576, N-[(6-amino-2-pyridyl)sulfonyl]-6-[6-[(1R)-2-benzyloxy-1-methyl-ethoxy]-3-pyridyl]-2-[(2S,5R)-2,5-dimethylpyrrolidin-1-yl]pyridine-3-carboxamide]
++ (“++” means between 3 uM and 10 uM) | Cc1cc(C)c(Oc2nc(-c3cnn(CC(C)C)c3)ccc2C(=O)NS(=O)(=O)c2cc[nH]n2)c(C)c1 [Compound 577, 6-(1-isobutylpyrazol-4-yl)-N-(1H-pyrazol-3-ylsulfonyl)-2-(2,4,6-trimethylphenoxy)pyridine-3-carboxamide]
+++ (“+++” means <3 uM) | CC(C)Oc1ccc(-c2ccc(C(=O)NS(=O)(=O)c3cccc(N)n3)c(N3CCC4(CC3)CC4)n2)cn1 [Compound 578, N-[(6-amino-2-pyridyl)sulfonyl]-2-(6-azaspiro[2.5]octan-6-yl)-6-(6-isopropoxy-3-pyridyl)pyridine-3-carboxamide]
+++ (“+++” means <3 uM) | Cc1cc(C)c(Oc2nc(-c3ccc(Cl)cc3)ccc2C(=O)NS(=O)(=O)c2ccc[nH]c2=O)c(C)c1 [Compound 579, 6-(4-chlorophenyl)-N-[(2-oxo-1H-pyridin-3-yl)sulfonyl]-2-(2,4,6-trimethylphenoxy)pyridine-3-carboxamide]
+++ (“+++” means <3 uM) | CCC(CC)Oc1cccc(-c2ccc(C(=O)NS(=O)(=O)c3cccc(N)n3)c(N3CC(C)CC3(C)C)n2)n1 (centres unmarked) [Compound 580, N-[(6-amino-2-pyridyl)sulfonyl]-6-[6-(1-ethylpropoxy)-2-pyridyl]-2-(2,2,4-trimethylpyrrolidin-1-yl)pyridine-3-carboxamide]
++ (“++” means between 3 uM and 10 uM) | Cc1cc(C)c(Oc2nc(-c3c[nH]nc3C(F)(F)F)ccc2C(=O)NS(=O)(=O)c2cccc(N)n2)c(C)c1 [Compound 582, N-[(6-amino-2-pyridyl)sulfonyl]-6-[3-(trifluoromethyl)-1H-pyrazol-4-yl]-2-(2,4,6-trimethylphenoxy)pyridine-3-carboxamide]

Compound | EC30
CC(C)COc1cc(F)cc(-c2ccc(C(=O)NS(=O)(=O)c3cccc(N)n3)c(N3CCC(C)C(C)(C)C3)n2)c1 (centres unmarked) [Compound 575, N-[(6-amino-2-pyridyl)sulfonyl]-6-(3-fluoro-5-isobutoxy-phenyl)-2-(3,3,4-trimethyl-1-piperidyl)pyridine-3-carboxamide] | +++ (“+++” means <3 uM)
CC(C)COc1cc(F)cc(-c2ccc(C(=O)NS(=O)(=O)c3cccc(N)n3)c(N3C[C@@H]4CC[C@@H](C4)C3)n2)c1 [Compound 581, N-[(6-amino-2-pyridyl)sulfonyl]-2-[(1R,5S)-3-azabicyclo[3.2.1]octan-3-yl]-6-(3-fluoro-5-isobutoxy-phenyl)pyridine-3-carboxamide] | +++ (“+++” means <3 uM)
